This passage reports IC50 results from patent US9174994B2, “Enhanced treatment regimens using mTor inhibitors” (INTELLIKINE LLC, priority 2011, dated 2015).

This experiment concerns PC3. Put plainly: PC3 proliferation. Type of experiment: cell-based. To be noted: Homo sapiens, PC-3; Table 1.

Take `CC(C)n1nc(-c2ccc3c(N)noc3c2)c2c(N)ncnc21` [Compound 12]: the IC50 is greater than 10 µM.
The value for `Nc1nc2cc(-c3nn(C4CCOCC4)c4ncnc(N)c34)ccc2o1` [Compound 5] was less than 0.1 µM; that for `CC(C)n1cc(-c2ccc3oc(N)nc3c2)c2c(N)ncnc21` [Compound 8] was less than 0.1 µM.
The value for `CC(=O)N1CCC(n2nc(-c3ccc4oc(N)nc4c3)c3c(N)ncnc32)CC1` [Compound 7] was less than 10 µM; that for `Nc1nc2cc(-c3nn(C4CCC(N5CCOCC5)CC4)c4ncnc(N)c34)ccc2o1` (stereo not shown) [Compound 6] was less than 1 µM.
For `CC(=O)Nc1noc2cc(-c3nn(C(C)C)c4ncnc(N)c34)ccc12` [Compound 11] the value was greater than 10 µM; for `CC(C)n1nc(-c2ccc3nc(N)oc3c2)c2c(N)ncnc21` [Compound 4], less than 10 µM.
Compound `CC(C)n1nc(-c2ccc3onc(N)c3c2)c2c(N)ncnc21` [Compound 10] returned an IC50 greater than 10 µM.
In turn, `Nc1nc2cc(-c3cn(C4CCOCC4)c4ncnc(N)c34)ccc2o1` [Compound 9] returned an IC50 of less than 0.1 µM.
For `CC(=O)Nc1nc2cc(-c3nn(C(C)C)c4ncnc(N)c34)ccc2o1` [Compound 2] the value was less than 1 µM.

Broadly, the IC50 is the concentration at which inhibition is half-maximal. A low value points to greater potency in that assay.
